Assay results taken from patent publication US8575214B2, “MGlu 2/3 agonists” (Eli Lilly and Company, priority 2012, dated 2013).

Details: both, human, pH 7.4
Method: Liver S9 fractions are obtained from Xenotech LLC (Lenexa, Mo.). The lot is from a pool of two donors, one male and one female. The liver S9 fraction is prepared and diluted using a homogenization buffer consisting of 50 mM Tris, pH 7.4 at 4° C. and 150 mM potassium chloride without EDTA. Prodrugs are incubated in the liver homogenate for 2 hours at 37° C., after which the concentration of active metabolite is determined by LC/MS/MS. Hydrolysis of Clopidogrel to Clopidogrel Carboxylic Acid is utilized as an assay positive control.
To ensure hydrolysis is not due to chemical instability, prodrugs are also incubated with PBS buffer alone without liver S-9.
A mobile phase gradient is utilized starting mobile phase ratio A/B of 99.9/0.1 and finishing at 1/99.

COC(=O)[C@H](c1ccccc1Cl)N1CCc2sccc2C1 [Clopidogrel]
Hydrolysis of Clopidogrel to Clopidogrel Carboxylic Acid (positive control): 73.0%
